Measurements taken from ChEMBL document CHEMBL1201862, “PubChem BioAssay data set” (2004).
The source made the active and inactive calls.

Experiments:
Hexokinase-1 = target: T1, Hexokinase-1 (Homo sapiens, UniProt P19367); assay: HK1 enzyme activation by HKDC1 hits – biochemical, selectivity assay for HKDC1 activator project, dose response (AID 504762); format: functional
T1 sequence (P19367 whole entry): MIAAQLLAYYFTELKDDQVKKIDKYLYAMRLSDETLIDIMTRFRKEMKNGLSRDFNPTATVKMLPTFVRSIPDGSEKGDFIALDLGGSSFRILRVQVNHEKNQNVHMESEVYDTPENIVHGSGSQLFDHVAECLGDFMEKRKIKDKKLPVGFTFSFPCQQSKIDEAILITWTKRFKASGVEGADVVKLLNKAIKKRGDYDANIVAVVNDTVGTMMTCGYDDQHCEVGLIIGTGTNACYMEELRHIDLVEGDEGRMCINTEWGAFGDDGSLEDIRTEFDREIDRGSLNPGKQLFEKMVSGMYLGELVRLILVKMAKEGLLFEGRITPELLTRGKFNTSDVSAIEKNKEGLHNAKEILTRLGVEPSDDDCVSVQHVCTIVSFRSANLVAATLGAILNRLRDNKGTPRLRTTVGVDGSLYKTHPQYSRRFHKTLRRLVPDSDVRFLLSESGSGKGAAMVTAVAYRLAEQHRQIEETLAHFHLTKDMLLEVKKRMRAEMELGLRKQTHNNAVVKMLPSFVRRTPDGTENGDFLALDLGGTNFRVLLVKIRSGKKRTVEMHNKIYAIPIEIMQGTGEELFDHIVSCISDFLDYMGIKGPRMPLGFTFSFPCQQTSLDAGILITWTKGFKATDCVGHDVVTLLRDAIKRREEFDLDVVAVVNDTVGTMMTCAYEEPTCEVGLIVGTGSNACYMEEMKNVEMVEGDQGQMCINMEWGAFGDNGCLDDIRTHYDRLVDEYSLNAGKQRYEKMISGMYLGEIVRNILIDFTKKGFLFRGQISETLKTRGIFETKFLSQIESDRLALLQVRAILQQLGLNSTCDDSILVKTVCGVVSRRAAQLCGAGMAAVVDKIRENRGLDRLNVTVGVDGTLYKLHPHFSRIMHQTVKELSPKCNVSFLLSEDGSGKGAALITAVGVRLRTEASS

[1] = target: T2, Calpain-2 catalytic subunit (Sus scrofa, UniProt P43367); assay: m-calpain protease blockers, concentration series – biochemical, fluorogenic peptide substrate, dose response (AID 1420); format: functional
T2 sequence (P43367 whole entry): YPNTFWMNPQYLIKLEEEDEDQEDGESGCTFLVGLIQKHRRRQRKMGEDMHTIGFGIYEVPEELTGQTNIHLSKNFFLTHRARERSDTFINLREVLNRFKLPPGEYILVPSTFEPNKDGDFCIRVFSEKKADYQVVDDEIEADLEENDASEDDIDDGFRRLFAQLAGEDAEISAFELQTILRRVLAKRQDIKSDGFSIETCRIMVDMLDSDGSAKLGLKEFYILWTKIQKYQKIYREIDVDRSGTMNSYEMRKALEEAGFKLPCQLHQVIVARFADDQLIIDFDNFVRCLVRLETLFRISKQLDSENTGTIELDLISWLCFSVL

[2] = target: T3, Lysosomal acid glucosylceramidase (Homo sapiens, UniProt P04062); assay: Dose response cell-based high throughput screening assay to identify enhancers of beta-glucosidase activity. [Related pubchem assays: 784 ]; format: functional
T3 sequence (P04062 whole entry): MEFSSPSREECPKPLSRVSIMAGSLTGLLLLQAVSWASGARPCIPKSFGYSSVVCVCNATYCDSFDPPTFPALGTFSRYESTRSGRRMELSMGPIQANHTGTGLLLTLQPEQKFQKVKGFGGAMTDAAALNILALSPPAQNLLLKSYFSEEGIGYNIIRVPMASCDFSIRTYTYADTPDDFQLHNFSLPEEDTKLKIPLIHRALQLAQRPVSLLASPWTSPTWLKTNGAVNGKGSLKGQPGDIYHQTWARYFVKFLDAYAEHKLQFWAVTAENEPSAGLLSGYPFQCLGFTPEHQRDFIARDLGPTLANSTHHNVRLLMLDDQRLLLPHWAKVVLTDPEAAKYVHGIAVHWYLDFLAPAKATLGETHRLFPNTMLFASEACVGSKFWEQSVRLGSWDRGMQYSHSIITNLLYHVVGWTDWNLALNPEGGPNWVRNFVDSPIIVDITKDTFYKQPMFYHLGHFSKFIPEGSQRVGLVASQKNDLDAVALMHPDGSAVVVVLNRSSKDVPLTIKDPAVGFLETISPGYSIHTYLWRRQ

Hexokinase HKDC1 = target: T4, Hexokinase HKDC1 (Homo sapiens, UniProt Q2TB90); assay: activation of HKDC1 glucose phosphorylation – biochemical, W721R variant, dose response (AID 504730); format: functional
T4 sequence (Q2TB90 whole entry): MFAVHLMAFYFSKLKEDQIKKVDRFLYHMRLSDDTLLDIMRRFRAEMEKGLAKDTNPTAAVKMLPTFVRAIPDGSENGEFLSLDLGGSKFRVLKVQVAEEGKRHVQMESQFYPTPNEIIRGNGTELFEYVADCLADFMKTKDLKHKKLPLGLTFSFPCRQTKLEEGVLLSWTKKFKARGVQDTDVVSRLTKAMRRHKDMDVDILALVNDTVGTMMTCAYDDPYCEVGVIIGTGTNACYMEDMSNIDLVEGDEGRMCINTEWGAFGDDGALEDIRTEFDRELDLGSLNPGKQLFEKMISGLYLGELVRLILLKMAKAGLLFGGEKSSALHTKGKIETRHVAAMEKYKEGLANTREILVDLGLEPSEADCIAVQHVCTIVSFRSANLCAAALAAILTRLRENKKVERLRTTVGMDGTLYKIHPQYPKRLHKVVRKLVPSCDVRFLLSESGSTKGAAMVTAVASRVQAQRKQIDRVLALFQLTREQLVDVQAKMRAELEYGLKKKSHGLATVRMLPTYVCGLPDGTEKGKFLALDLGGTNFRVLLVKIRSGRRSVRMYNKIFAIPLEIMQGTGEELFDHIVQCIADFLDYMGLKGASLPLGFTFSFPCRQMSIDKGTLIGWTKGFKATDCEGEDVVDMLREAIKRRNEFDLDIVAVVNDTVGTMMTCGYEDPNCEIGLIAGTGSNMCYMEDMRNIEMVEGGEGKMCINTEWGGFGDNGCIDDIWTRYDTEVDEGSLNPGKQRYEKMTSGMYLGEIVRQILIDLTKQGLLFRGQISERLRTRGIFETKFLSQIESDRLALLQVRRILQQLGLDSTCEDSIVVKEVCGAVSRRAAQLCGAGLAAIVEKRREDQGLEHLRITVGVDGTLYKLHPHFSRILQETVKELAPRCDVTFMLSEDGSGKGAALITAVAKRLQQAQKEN

[3] = (§1) Late stage assay provider results from the probe development effort to identify inhibitors of Protein Phosphatase Methylesterase 1 (PME-1): luminescence-based […] dose response assay to determine cytotoxicity of inhibitor compounds. [Related pubchem assays (depositor defined):AID2130, AID2143, AID2171, AID2174, AID2177, AID2232, AID2233, AID2291, AID2363, AID2365, AID2366, AID2368, AID2369, AID2371, AID463124, AID463130, AID463131, AID463132, AID463146, AID463149] Panel member name: Serum-free Media; format: toxicity
[4] = as §1, with “Fetal Calf Serum” for “Serum-free Media”; format: toxicity

EC50 (Hexokinase-1)	IC50 [1]	EC50 [2]	EC50 (Hexokinase HKDC1)	SMILES	CC50 [3]	CC50 [4]
13.6 µM (active)	< 0.4 µM (not active)	1.66 µM (active)	11.7 µM (active)	O=S(=O)(NC1c2cccc3cccc(c23)C1N1CCNCC1)c1ccccc1 (stereo unspecified)		
				CC[C@]1(c2ccccc2C)C(=O)N(C(=O)OC)N1C(=O)OC	> 50 µM (inactive)	> 50 µM (inactive)
